This data set is described as follows: biolocalization of the radionuclide in rats (tissue distribution after tail vein injection). It counts as in vivo, male Sprague Dawley rats. The settings on record: for Bone/Blood / Bone/Muscle: ratio of percent dose per gram. As to the method: Studies to determine the qualitative biodistribution of the various radionuclides were conducted by injecting the compositions into rats and obtaining the gamma ray images of the entire animal at various times up to two hours after injection.
Laboratory rats were injected with the above complex (50-100 μl) via the tail vein. After 2 hours, the animals were sacrificed by cervical dislocation and organs and tissues removed. Samples were counted with a NaI counter to determine the biolocalization of the radionuclide.

[1] abbreviates: Ho-166, Table X, time not stated, average of 3 rats.
Setting [2] is: Lu-177 (Ex. 14, 15; 5 rats) or Ho-166 (Ex. 16; 3 rats), two hour.
The mark [3] stands for this setting: Ho-166, two hours, comparative, average of 2 rats (MDP, HEDP, PYP), 1 rat (IDP, HDP).
[4] abbreviates: Gd-159, two hour, average of five rats.
[5] abbreviates: Sm-153, two hours, comparative, average of 5 rats (MDP, HEDP), 3 rats (PYP, IDP).
[6] abbreviates: Sm-153, rats, 2 hours, average of 5 rats.
The mark [7] stands for this setting: Yb-175, rats, two hour, average of 5 rats.

The structures appear in SMILES notation.

As to `CC(C)N(CCN(CP(=O)(O)O)CP(=O)(O)O)CP(=O)(O)O.[166Ho+3]` [Example 31], under setting [1], the “% Dose in Blood” value worked out at 0.22 % Dose, the “% Dose in Kidney” value is recorded as 0.44 % Dose, the “% Dose in Liver” value is given as 0.28 % Dose and the “% Dose in Muscle” value stood at 0.68 % Dose. In addition, under setting [1], the “% Dose in Skeleton” value is given as 65 % Dose, the “% Dose in Spleen” value is recorded as 0.01 % Dose, the Bone/Blood worked out at 245 and the Bone/Muscle amounted to 520.
With `O=P(O)(O)CN(CCN(CP(=O)(O)O)CP(=O)(O)O)CP(=O)(O)O.[177Lu+3]` [Example 14], under setting [2], the “% Dose in Blood” value amounted to 0.10 % Dose, the “% Dose in Kidneys” value amounted to 0.28 % Dose, the “% Dose in Liver” value is on record as 0.48 % Dose and the “% Dose in Muscle” value is reported as 0.44 % Dose. Further, under setting [2], the “% Dose in Skeleton” value came out at 51 % Dose, the Bone/Blood turned out to be 500 and the Bone/Muscle is 1380.
Regarding `O=P(O)(O)OP(=O)(O)O.[166Ho+3]` [Ho-166 PYP, reference compound], under setting [3], the “% Dose In Blood” value is 0.63 % Dose, the “% Dose In Bone” value was 3 % Dose and the “% Dose In Liver” value is 67 % Dose. Besides, where the note is “Ho-166, two hours, comparative”, the Bone/Blood is recorded as 4 and the Bone/Muscle was 13.
As for `O=P(O)(O)CN(CCN(CP(=O)(O)O)CP(=O)(O)O)CP(=O)(O)O.[159Gd+3]` [Example 19], under setting [4], the “% Dose in Blood” value is 0.15 % Dose, the “% Dose in Kidneys” value stood at 0.33 % Dose, the “% Dose in Liver” value is 0.25 % Dose and the “% Dose in Muscle” value is given as 0.56 % Dose. Further, under setting [4], the “% Dose in Skeleton” value was determined as 57 % Dose, the Bone/Blood came out at 305 and the Bone/Muscle is recorded as 577.
Take `O=P(O)(O)CP(=O)(O)O.[153Sm+3]` [Sm-153 MDP, reference compound]: under setting [5], the “% Dose In Blood” value is on record as 0.23 % Dose, the “% Dose In Bone” value stood at 2 % Dose and the “% Dose In Liver” value worked out at 85 % Dose. For the same compound, where the note is “Sm-153, two hours, comparative”, the Bone/Blood is on record as 9 and the Bone/Muscle came to 7.
Turning to `CC(O)(P(=O)(O)O)P(=O)(O)O.[166Ho+3]` [Ho-166 HEDP, reference compound], under setting [3], the “% Dose In Blood” value is 10.1 % Dose, the “% Dose In Bone” value is listed as 25 % Dose and the “% Dose In Liver” value is 1.8 % Dose. Moreover, under “Ho-166, two hours, comparative”, the Bone/Blood is recorded as 2 and the Bone/Muscle is reported as 17.
For the compound `O=P(O)(O)NP(=O)(O)O.[166Ho+3]` [Ho-166 IDP, reference compound], under setting [3], the “% Dose In Blood” value came out at 0.28 % Dose, the “% Dose In Bone” value is on record as 2 % Dose and the “% Dose In Liver” value was determined as 65 % Dose. In addition, under “Ho-166, two hours, comparative”, the Bone/Blood was determined as 6 and the Bone/Muscle is on record as 17.
Turning to `O=P(O)(O)CP(=O)(O)O.[166Ho+3]` [Ho-166 MDP, reference compound], under setting [3], the “% Dose In Blood” value worked out at 1.5 % Dose, the “% Dose In Bone” value was 1 % Dose and the “% Dose In Liver” value is given as 64 % Dose. Also, where the note is “Ho-166, two hours, comparative”, the Bone/Blood amounted to 0.5 and the Bone/Muscle is 6.
In the case of `O=P(O)(O)CN(CCN(CCN(CP(=O)(O)O)CP(=O)(O)O)CCN(CP(=O)(O)O)CP(=O)(O)O)CP(=O)(O)O.[153Sm+3]` [Example 8], under setting [6], the “% Dose in Blood” value was determined as 0.25 % Dose, the “% Dose in Liver” value was 0.18 % Dose, the “% Dose in Skeleton” value stood at 28 % Dose and the “% Dose in Urine” value is 65 % Dose. Under setting [6], the Bone/Blood worked out at 80 and the Bone/Muscle worked out at 410.
Turning to `O=P(O)(O)CN(CCO)CCN(CP(=O)(O)O)CP(=O)(O)O.[175Yb+3]` [Example 11], under setting [7], the “% Dose in Blood” value is given as 0.231 % Dose, the “% Dose in Liver” value stood at 0.214 % Dose, the “% Dose in Skeleton” value is recorded as 56 % Dose and the Bone/Blood worked out at 190. Further, the Bone/Muscle under setting [7] amounted to 572.
Regarding `O=P(O)(O)CN(CCO)CCN(CP(=O)(O)O)CP(=O)(O)O.[159Gd+3]` [Example 20], under setting [4], the “% Dose in Blood” value is 0.14 % Dose, the “% Dose in Kidneys” value is 0.58 % Dose, the “% Dose in Liver” value is given as 0.57 % Dose and the “% Dose in Muscle” value stood at 0.76 % Dose. Further, under setting [4], the “% Dose in Skeleton” value stood at 60 % Dose, the Bone/Blood was determined as 335 and the Bone/Muscle is listed as 548.
Turning to `O=P(O)(O)C(O)P(=O)(O)O.[166Ho+3]` [H0-166 HDP, reference compound], under setting [3], the “% Dose In Blood” value stood at 0.04 % Dose, the “% Dose In Bone” value was found to be 0.2 % Dose and the “% Dose In Liver” value worked out at 2 % Dose. In addition, where the note is “Ho-166, two hours, comparative”, the Bone/Blood stood at 4 and the Bone/Muscle worked out at 4.
For the compound `O=P(O)(O)NP(=O)(O)O.[153Sm+3]` [Sm-153 IDP, reference compound], under setting [5], the “% Dose In Blood” value worked out at 0.04 % Dose, the “% Dose In Bone” value worked out at 0.6 % Dose and the “% Dose In Liver” value came to 36 % Dose. Under “Sm-153, two hours, comparative”, the Bone/Blood is reported as 11 and the Bone/Muscle amounted to 8.
With `CN(CCN(CP(=O)(O)O)CP(=O)(O)O)CP(=O)(O)O.[166Ho+3]` [Example 29], under setting [1], the “% Dose in Blood” value was 0.12 % Dose, the “% Dose in Kidney” value was 0.30 % Dose, the “% Dose in Liver” value amounted to 0.14 % Dose and the “% Dose in Muscle” value amounted to 0.34 % Dose. Further, under setting [1], the “% Dose in Skeleton” value was found to be 68 % Dose, the “% Dose in Spleen” value amounted to 0.01 % Dose, the Bone/Blood is reported as 470 and the Bone/Muscle came to 1133.
In the case of `O=P(O)(O)OP(=O)(O)O.[153Sm+3]` [Sm-153 PYP, reference compound], under setting [5], the “% Dose In Blood” value is given as 0.23 % Dose, the “% Dose In Bone” value is on record as 2 % Dose and the “% Dose In Liver” value was 73 % Dose. Further, for the setting “Sm-153, two hours, comparative”, the Bone/Blood was 7 and the Bone/Muscle came to 15.
`CC(O)(P(=O)(O)O)P(=O)(O)O.[153Sm+3]` [Sm-153 HEDP, reference compound]: under setting [5], the “% Dose In Blood” value came out at 13 % Dose, the “% Dose In Bone” value was determined as 21 % Dose and the “% Dose In Liver” value came out at 3.5 % Dose. Where the note is “Sm-153, two hours, comparative”, the Bone/Blood is listed as 1 and the Bone/Muscle is listed as 11.
For the compound `O=P(O)(O)CN(CP(=O)(O)O)CP(=O)(O)O.[175Yb+3]` [Example 13], under setting [7], the “% Dose in Blood” value is given as 0.204 % Dose, the “% Dose in Liver” value is on record as 0.236 % Dose, the “% Dose in Skeleton” value turned out to be 63 % Dose and the Bone/Blood is recorded as 256. Moreover, the Bone/Muscle under setting [7] is reported as 876.
As for `O=P(O)(O)CN(CCO)CCN(CP(=O)(O)O)CP(=O)(O)O.[153Sm+3]` [Example 6], under setting [6], the “% Dose in Blood” value is 0.035 % Dose, the “% Dose in Liver” value was 0.45 % Dose, the “% Dose in Skeleton” value was 57 % Dose and the “% Dose in Urine” value is recorded as 50 % Dose. Besides, under setting [6], the Bone/Blood is given as 1300 and the Bone/Muscle came to 1300.
In the case of `O=P(O)(O)CN(CCN(CP(=O)(O)O)CP(=O)(O)O)CCN(CP(=O)(O)O)CP(=O)(O)O.[153Sm+3]` [Example 4], under setting [6], the “% Dose in Blood” value was found to be 0.16 % Dose, the “% Dose in Liver” value was determined as 0.27 % Dose, the “% Dose in Skeleton” value is 30 % Dose and the “% Dose in Urine” value amounted to 74 % Dose. Further, under setting [6], the Bone/Blood is 224 and the Bone/Muscle turned out to be 220.
Turning to `O=P(O)(O)CN(CCN(CP(=O)(O)O)CP(=O)(O)O)CP(=O)(O)O.[175Yb+3]` [Example 9], under setting [7], the “% Dose in Blood” value stood at 0.074 % Dose, the “% Dose in Liver” value worked out at 0.138 % Dose, the “% Dose in Skeleton” value is given as 50 % Dose and the Bone/Blood is 562. In addition, the Bone/Muscle under setting [7] was 619.
In the case of `O=P(O)(O)CN(CCO)CCN(CP(=O)(O)O)CP(=O)(O)O.[177Lu+3]` [Example 15], under setting [2], the “% Dose in Blood” value is 0.17 % Dose, the “% Dose in Kidneys” value came to 0.30 % Dose, the “% Dose in Liver” value came out at 1.9 % Dose and the “% Dose in Muscle” value turned out to be 0.56 % Dose. Besides, under setting [2], the “% Dose in Skeleton” value amounted to 58 % Dose, the Bone/Blood is given as 370 and the Bone/Muscle was determined as 570.
Take `O=P(O)(O)CN(CCN(CP(=O)(O)O)CP(=O)(O)O)Cc1ccccc1.[166Ho+3]` [Example 33]: under setting [1], the “% Dose in Blood” value turned out to be 0.09 % Dose, the “% Dose in Kidney” value is 0.34 % Dose, the “% Dose in Liver” value stood at 0.13 % Dose and the “% Dose in Muscle” value amounted to 0.31 % Dose. Moreover, under setting [1], the “% Dose in Skeleton” value came out at 65 % Dose, the “% Dose in Spleen” value stood at 0.01 % Dose, the Bone/Blood amounted to 542 and the Bone/Muscle worked out at 1093.
Regarding `O=P(O)(O)CN(CCN(CP(=O)(O)O)CP(=O)(O)O)CCN(CP(=O)(O)O)CP(=O)(O)O.[175Yb+3]` [Example 10], under setting [7], the “% Dose in Blood” value worked out at 0.116 % Dose, the “% Dose in Liver” value is 0.112 % Dose, the “% Dose in Skeleton” value is listed as 25 % Dose and the Bone/Blood is recorded as 179. For the same compound, the Bone/Muscle under setting [7] was 366.

These data come from US5300279A, “Organic amine phosphonic acid complexes for the treatment of calcific tumors” (The Dow Chemical Company, priority 1990, dated 1994).
